Paper PMC6210068 (ACS Omega, 2018)

Experiments:
5HT2C serotonin receptor = biological target: T1, 5HT2C serotonin receptor (Homo sapiens, UniProt P28335); assay: PDSP off-target binding, 5HT2C
T1 sequence (P28335 33-458): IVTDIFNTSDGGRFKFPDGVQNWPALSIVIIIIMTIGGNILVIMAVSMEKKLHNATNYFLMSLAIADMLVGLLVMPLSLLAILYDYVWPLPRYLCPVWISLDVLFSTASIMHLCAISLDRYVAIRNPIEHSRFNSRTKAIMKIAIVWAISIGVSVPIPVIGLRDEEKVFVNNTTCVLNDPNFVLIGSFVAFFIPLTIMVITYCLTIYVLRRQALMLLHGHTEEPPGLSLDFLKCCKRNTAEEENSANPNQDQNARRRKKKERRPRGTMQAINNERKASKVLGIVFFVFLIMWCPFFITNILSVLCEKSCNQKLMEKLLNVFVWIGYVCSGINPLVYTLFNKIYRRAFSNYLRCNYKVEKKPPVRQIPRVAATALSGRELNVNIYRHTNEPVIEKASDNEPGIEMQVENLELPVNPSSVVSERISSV

rat kidney TSPO = rat kidney TSPO (Rattus norvegicus, UniProt P16257); assay: Radioligand binding at TSPO; conditions: for Ki: TSPO, rat TSPO, [3H]PK11195
Chain of rat kidney TSPO (P16257 whole entry): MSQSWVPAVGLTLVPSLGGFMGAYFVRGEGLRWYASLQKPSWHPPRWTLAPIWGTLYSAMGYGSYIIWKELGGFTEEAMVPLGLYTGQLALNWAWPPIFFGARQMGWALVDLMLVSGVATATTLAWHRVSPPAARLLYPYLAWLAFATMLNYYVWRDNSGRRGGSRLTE

hDAT = hDAT (Homo sapiens, UniProt Q01959); assay: Radioligand binding at DAT; conditions: 10 μM; [3H]WIN35428; negative = enhanced radioligand binding
Chain of hDAT (Q01959 whole entry): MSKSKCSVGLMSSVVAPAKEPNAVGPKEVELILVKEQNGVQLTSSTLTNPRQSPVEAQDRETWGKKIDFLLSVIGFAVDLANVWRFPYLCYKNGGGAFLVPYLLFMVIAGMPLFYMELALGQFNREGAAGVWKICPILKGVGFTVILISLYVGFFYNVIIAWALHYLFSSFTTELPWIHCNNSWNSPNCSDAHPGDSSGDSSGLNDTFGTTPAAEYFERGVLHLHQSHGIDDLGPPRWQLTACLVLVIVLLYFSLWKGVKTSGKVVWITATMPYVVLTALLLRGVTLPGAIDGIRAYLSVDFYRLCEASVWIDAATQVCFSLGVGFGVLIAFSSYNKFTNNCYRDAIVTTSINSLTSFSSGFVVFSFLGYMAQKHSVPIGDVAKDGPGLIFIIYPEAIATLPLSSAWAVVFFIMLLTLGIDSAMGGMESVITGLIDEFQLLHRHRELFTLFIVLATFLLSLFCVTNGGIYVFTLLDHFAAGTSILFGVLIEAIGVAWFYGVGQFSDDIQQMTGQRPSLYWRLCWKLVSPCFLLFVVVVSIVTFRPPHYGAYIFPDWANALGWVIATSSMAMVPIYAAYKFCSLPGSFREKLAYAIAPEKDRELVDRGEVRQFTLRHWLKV

DOR [1] = biological target: T2, DOR (Homo sapiens, UniProt P41143); assay: Radioligand binding at DOR
T2 sequence (P41143 whole entry): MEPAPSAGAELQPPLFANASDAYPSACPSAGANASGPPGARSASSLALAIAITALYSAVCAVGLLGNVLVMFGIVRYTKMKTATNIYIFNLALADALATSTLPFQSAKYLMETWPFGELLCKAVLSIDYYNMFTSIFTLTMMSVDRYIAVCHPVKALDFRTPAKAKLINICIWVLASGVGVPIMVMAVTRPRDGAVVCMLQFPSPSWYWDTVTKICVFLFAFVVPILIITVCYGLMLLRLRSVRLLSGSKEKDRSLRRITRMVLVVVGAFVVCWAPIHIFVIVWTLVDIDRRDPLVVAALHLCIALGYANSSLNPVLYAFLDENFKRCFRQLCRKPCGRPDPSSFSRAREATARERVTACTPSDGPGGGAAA

KOR [2] = biological target: T3, KOR (Homo sapiens, UniProt P41145); assay: biochemical; assay type: binding; conditions: for Ki: KOR
T3 sequence (P41145 whole entry): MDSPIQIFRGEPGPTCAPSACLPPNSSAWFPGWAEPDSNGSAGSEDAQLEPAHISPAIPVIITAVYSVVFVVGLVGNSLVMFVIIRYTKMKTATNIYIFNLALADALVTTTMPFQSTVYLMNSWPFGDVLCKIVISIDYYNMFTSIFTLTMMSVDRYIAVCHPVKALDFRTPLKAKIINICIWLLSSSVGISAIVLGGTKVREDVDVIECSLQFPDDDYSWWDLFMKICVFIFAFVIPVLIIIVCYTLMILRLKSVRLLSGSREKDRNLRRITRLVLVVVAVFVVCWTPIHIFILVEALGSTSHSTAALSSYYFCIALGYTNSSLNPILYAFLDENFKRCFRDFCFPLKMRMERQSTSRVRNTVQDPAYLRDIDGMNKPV

hA3AR = biological target: T4, hA3AR (Homo sapiens, UniProt P0DMS8); assay: A3AR binding
T4 sequence (P0DMS8 1-318): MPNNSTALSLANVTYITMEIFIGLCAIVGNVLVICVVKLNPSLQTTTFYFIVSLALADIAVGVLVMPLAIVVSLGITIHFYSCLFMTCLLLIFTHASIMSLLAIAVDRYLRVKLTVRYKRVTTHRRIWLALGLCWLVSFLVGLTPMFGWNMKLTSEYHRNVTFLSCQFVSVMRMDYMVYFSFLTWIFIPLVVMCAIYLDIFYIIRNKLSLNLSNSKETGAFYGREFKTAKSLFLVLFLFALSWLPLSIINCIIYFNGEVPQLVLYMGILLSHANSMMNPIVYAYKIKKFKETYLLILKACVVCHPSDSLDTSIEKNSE

mA3AR = biological target: T5, mA3AR (Mus musculus, UniProt Q61618); assay: Mouse A3AR binding
T5 sequence (Q61618 1-319): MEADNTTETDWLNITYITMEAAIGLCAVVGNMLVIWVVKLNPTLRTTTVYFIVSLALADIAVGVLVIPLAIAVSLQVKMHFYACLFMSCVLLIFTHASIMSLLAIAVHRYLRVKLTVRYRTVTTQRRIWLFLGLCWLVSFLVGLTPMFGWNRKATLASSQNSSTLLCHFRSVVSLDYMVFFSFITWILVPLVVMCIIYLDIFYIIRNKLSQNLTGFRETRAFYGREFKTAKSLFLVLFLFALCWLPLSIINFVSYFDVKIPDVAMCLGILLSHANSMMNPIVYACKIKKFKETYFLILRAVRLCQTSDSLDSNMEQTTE

KOR [3] = biological target: T3, KOR; assay type: cell-based; conditions: 1 μM 98
KOR [4] = biological target: T3, KOR; assay: cell-based; assay type: cell-based
MOR [5] = biological target: T6, MOR (Homo sapiens, UniProt P35372); assay: biochemical; assay type: binding; conditions: for MOR, inhibition of radioligand binding at 10 μM (class): Table 2
T6 sequence (P35372 whole entry): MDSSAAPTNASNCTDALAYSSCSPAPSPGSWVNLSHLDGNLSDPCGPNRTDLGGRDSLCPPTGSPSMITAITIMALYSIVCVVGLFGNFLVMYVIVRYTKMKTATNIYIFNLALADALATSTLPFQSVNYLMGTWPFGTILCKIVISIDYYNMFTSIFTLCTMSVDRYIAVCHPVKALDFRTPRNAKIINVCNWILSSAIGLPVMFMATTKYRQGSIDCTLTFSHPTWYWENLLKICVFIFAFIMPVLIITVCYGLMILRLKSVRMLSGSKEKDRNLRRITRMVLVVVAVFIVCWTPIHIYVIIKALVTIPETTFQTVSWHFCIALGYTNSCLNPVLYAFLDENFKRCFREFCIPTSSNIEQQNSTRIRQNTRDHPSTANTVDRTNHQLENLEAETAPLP

DOR [6] = biological target: T2, DOR; assay: β-arrestin-recruitment TANGO assay at DOR; assay type: cell-based; conditions: 10 μM
MOR [7] = biological target: T6, MOR; assay: β-arrestin-recruitment TANGO assay at MOR; assay type: cell-based; conditions: 10 μM
KOR [8] = biological target: T3, KOR; assay: β-arrestin-recruitment TANGO assay at KOR; assay type: cell-based; conditions: 10 μM; vs naloxone 121 = 100% inhibition; agonist 109 (3 nM)
hA2AAR = hA2AAR (Homo sapiens, UniProt P29274); assay: hA2AAR binding; conditions: for inhibition at 10 µM: read-out: binding inhibition at hA2AAR (% at 10 μM)
Chain of hA2AAR (P29274 whole entry): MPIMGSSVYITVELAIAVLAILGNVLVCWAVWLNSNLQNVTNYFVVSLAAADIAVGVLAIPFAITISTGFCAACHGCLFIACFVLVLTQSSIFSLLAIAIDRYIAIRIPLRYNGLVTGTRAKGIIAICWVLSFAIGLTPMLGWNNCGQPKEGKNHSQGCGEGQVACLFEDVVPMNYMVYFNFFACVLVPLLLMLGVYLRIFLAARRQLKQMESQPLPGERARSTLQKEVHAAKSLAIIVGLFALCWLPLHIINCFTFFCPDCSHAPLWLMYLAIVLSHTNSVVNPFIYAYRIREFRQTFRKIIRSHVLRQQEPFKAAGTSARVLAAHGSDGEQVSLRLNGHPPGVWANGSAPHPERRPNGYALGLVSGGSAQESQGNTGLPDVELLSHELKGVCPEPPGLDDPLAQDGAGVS

hA1AR = biological target: T7, hA1AR (Homo sapiens, UniProt P30542); assay: hA1AR binding; conditions: read-out: binding inhibition at hA1AR (% at 10 μM)
T7 sequence (P30542 1-326): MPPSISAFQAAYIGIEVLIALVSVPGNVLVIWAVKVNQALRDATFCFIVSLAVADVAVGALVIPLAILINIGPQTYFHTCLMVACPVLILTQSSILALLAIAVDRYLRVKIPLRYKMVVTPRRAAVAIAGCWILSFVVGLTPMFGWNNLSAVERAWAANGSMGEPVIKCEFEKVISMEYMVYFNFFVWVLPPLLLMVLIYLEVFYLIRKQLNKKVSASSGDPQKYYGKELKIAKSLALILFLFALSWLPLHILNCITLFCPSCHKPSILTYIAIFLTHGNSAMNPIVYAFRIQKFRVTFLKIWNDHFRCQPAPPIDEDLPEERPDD

rat σ2 receptor = biological target: T8, rat σ2 receptor (Rattus norvegicus, UniProt Q5U3Y7); assay: PDSP binding, σ2 receptor
T8 sequence (Q5U3Y7 1-176): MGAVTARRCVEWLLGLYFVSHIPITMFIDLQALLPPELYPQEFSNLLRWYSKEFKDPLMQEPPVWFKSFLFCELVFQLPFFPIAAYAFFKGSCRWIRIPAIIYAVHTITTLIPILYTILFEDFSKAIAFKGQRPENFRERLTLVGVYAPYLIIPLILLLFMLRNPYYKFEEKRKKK

hNOP = hNOP (Homo sapiens, UniProt P41146); assay: Radioligand binding at NOP
Chain of hNOP (P41146 whole entry): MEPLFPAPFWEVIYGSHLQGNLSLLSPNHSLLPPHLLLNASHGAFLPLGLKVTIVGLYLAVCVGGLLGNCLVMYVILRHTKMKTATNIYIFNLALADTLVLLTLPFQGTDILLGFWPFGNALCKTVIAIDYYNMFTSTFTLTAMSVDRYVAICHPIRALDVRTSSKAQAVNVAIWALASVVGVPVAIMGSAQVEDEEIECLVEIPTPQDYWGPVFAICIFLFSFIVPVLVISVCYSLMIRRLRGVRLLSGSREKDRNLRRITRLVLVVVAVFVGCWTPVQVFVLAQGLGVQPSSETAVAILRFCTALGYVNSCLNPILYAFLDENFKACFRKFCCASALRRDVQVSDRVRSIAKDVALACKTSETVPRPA

mA1AR = biological target: T9, mA1AR (Mus musculus, UniProt Q60612); assay: mA1AR binding; conditions: read-out: mA1AR binding, % inhibition at 10 μM
T9 sequence (Q60612 1-326): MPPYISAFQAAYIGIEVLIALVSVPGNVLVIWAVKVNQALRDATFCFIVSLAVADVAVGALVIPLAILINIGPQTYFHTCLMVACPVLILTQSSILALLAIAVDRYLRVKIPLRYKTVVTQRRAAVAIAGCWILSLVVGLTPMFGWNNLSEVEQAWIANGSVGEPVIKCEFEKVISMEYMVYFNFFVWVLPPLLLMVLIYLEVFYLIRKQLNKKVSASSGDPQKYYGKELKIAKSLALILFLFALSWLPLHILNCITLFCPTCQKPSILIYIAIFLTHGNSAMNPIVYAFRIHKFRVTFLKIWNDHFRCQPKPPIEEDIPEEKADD

mA2AAR = mA2AAR (Mus musculus, UniProt Q60613); assay: mA2AAR binding; conditions: read-out: mA2AAR binding, % inhibition at 10 μM
Chain of mA2AAR (Q60613 whole entry): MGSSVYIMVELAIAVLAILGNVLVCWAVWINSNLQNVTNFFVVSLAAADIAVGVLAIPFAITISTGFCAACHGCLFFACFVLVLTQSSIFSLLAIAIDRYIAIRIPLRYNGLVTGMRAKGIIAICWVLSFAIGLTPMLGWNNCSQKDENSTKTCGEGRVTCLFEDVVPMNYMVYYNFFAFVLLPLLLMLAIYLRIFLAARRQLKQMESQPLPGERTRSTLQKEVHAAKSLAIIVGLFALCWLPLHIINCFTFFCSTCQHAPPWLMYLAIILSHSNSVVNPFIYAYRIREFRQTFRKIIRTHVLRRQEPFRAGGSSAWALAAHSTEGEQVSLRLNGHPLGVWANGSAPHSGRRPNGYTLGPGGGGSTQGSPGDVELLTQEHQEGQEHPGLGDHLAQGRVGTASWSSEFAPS

[9] = [3H]U69593, mean ± SEM, N = 2–4

SMILES | Ki (rat kidney TSPO) [nM] | DAT, inhibition, % of control at 10 μM (hDAT) | DOR, inhibition of radioligand binding at 10 μM (class) (DOR [1]; Table 1) | Ki (hA3AR) [nM] | Ki (mA3AR) [nM] | Ki (KOR [2]; [9]) [nM] | DOR, inhibition of radioligand binding at 10 μM (class) (DOR [1]; Table 2) | MOR, inhibition of radioligand binding at 10 μM (class) (MOR [5]) | inhibition at 10 µM (mA1AR) [%] | inhibition at 10 µM (mA2AAR) [%] | further results
CNc1nc(C#Cc2ccc(Cl)s2)nc2c1ncn2[C@H]1[C@H](O)[C@H](O)[C@]2(C(=O)NCCN)C[C@H]12 [compound 21] | > 10000 | –136% | ^f (<30% inhibition of radioligand binding at 10 μM) | 158 ± 8 | – | – | – | – | – | – | Ki (5HT2C serotonin receptor): 510 nM; Ki (KOR [2]): 2790 nM
CNC(=O)[C@@]12C[C@@H]1[C@@H](n1cnc3c(NC)nc(C#Cc4ccccc4Cl)nc31)[C@H](O)[C@@H]2O [compound 13] | – | –484% | ^e (30–50% inhibition of radioligand binding at 10 μM) | – | 110 | – | – | – | – | – | TSPO, inhibition of radioligand binding at 10 μM (class) (rat kidney TSPO; Table 1): ^e (30–50% inhibition of radioligand binding at 10 μM)
CNc1nc(C#Cc2ccccc2)nc2c1ccn2[C@H]1[C@H](O)[C@H](O)[C@@H]2C[C@@H]21 [compound 54, (1R,2R,3S,4R,5S)-4-(4-(Methylamino)-2-(phenylethynyl)-7H-pyrrolo[2,3-d]pyrimidin-7-yl)bicyclo[3.1.0]hexane-2,3-diol] | – | −58% | – | 85.6 ± 12 | – | 1120 ± 220 | – | – | – | – | inhibition of agonist 98 in βarrestin2 assay (KOR [3]): did not inhibit; TSPO, inhibition of radioligand binding at 10 μM (class) (rat kidney TSPO; Table 5): ^e (<30% inhibition of radioligand binding at 10 μM); inhibition of agonist 98 in cAMP assay (KOR [4]; 100 nM 98): did not inhibit; inhibition at 30 µM (KOR [4]; CHO, read-out: inhibition of cAMP accumulation, % inhibition at 30 μM): 16%; DOR, inhibition of radioligand binding at 10 μM (class) (DOR [1]; Table 5): ^d (30–50% inhibition of radioligand binding at 10 μM); reduction of hA3AR binding affinity by 7-deaza modification (hA3AR; 28 vs 24, 54 vs 49, 55 vs 51): 16 fold; Ki (MOR [5]): 2670 ± 280 nM
CNc1nc(C#Cc2ccc(Cl)s2)nc2c1ncn2[C@H]1[C@H](O)[C@H](O)[C@]2(C(=O)OCc3ccccc3)C[C@H]12 [compound 35] | 4050 ± 740 | <20% | – | 7.81 ± 2.4 | 891 | 629 ± 183 | ^d (<30% inhibition of radioligand binding at 10 μM) | ^c (30–50% inhibition of radioligand binding at 10 μM) | – | – | DOR Antag (%) (DOR [6]; vs naloxone 121 = 100% inhibition): 14.1%; DOR Ag (%) (DOR [6]; vs standard agonist = 100%): –1.9%; MOR Antag (%) (MOR [7]; vs naloxone 121 = 100% inhibition, agonist 99 (300 nM)): 82.1%; MOR Ag (%) (MOR [7]; vs standard agonist = 100%): 3.1%; KOR Antag (%) (KOR [8]): 112.9%
CNC(=O)[C@@]12C[C@@H]1[C@@H](n1cnc3c(NCCCO)nc(C#Cc4ccc(Cl)s4)nc31)[C@H](O)[C@@H]2O [compound 20] | 6160 ± 50 | –107 ± 4% | ^e (30–50% inhibition of radioligand binding at 10 μM) | 2.04 ± 1.46 | 105 | – | – | – | – | – | –
CNC(=O)[C@@]12C[C@@H]1[C@@H](n1cnc3c(NCCC(F)(F)F)nc(C#Cc4ccc(Cl)s4)nc31)[C@H](O)[C@@H]2O [compound 19] | 1300 ± 150 | 15% | ^e (30–50% inhibition of radioligand binding at 10 μM) | 3.7 ± 1 | 71 | – | – | – | – | – | inhibition at 10 µM (hA2AAR): 21%; inhibition at 10 µM (hA1AR): 46%
O[C@@H]1[C@H](O)[C@@H]2C[C@@H]2[C@H]1n1cnc2c(NCc3cccc(Cl)c3)nc(C#Cc3ccccc3)nc21 [compound 47] | 1640 ± 160 | 37% | – | – | 299 | – | – | – | – | – | Ki (rat σ2 receptor): 2730 nM; Ki (DOR [1]): 8000 ± 1000 nM; Ki (hA2AAR): 670 nM; Ki (hNOP): > 10000 nM
CCCOC(=O)[C@@]12C[C@@H]1[C@@H](n1cnc3c(NC)nc(C#Cc4ccc(Cl)s4)nc31)[C@H](O)[C@@H]2O [compound 30] | 1160 ± 560 | –426% | – | – | – | 437 ± 167 | ^d (<30% inhibition of radioligand binding at 10 μM) | ^d (<30% inhibition of radioligand binding at 10 μM) | 53 | 13 | –
CNc1nc(C#Cc2ccc(Cl)s2)nc2c1ncn2[C@@H]1O[C@H](C(=O)OC)[C@@H](O)[C@H]1O [compound 46] | – | –220% | – | – | – | – | – | – | 62 | 12 | KOR, inhibition of radioligand binding at 10 μM (class) (KOR [2]; Table 3, 10 μM): ^d (30–50% inhibition of radioligand binding at 10 μM)
CCOC(=O)[C@@]12C[C@@H]1[C@@H](n1cnc3c(NC)cc(C#Cc4ccc(Cl)s4)nc31)[C@H](O)[C@@H]2O [compound 26] | 3810 ± 100 | <10% | – | 29.4 ± 13.8 | 828 | 806 ± 263 | ^c (30–50% inhibition of radioligand binding at 10 μM) | ^c (30–50% inhibition of radioligand binding at 10 μM) | 54 | 5 | Ki (rat σ2 receptor): 1760 nM; inhibition at 10 µM (hA2AAR): 16%; inhibition at 10 µM (hA1AR): 39%
